pIC50: −log10 of the molar value.
Legend:
Type in all cases: cell-based
HCT116 WT cells [1] = assay: PRMT5 cell SDMA assay, MTAP WT cells; conditions: Homo sapiens; for IC50: read-out: Cell SDMA IC50 (μM) (MTAP WT)
HCT116 KO-MTAP cells [2] = assay: PRMT5 cell SDMA assay, MTAP KO cells; conditions: Homo sapiens; for IC50: read-out: Cell SDMA IC50 (μM) (MTAP KO)
HCT116 WT cells [3] = assay: Cell proliferation assay (Alamar Blue), MTAP WT cells; conditions: Homo sapiens, HCT-116, 120 h, 5 days
Procedure: (§1) Cell Proliferation Assays:
(§2) A day 0 plate is created in parallel but not dosed, after plating 4 μl of Alamar Blue (Thermo #DAL1100) and incubate for 3 h at 37 C, 5% CO2.
(§3) The dosed cell plates were then incubated for 5 days at 37° C. before adding Alamar blue and being read in the Envision following same protocol as for first plate.

HCT116 KO-MTAP cells [4] = assay: Cell proliferation assay (Alamar Blue), MTAP KO cells; conditions: Homo sapiens; for IC50: HCT-116, 120 h, HCT116 MTAP KO, 5 days, read-out: Cell proliferation IC50 (μM) (MTAP KO)
Procedure: as §1, §2, §3

[5] = HCT-116, HCT116 MTAP WT, 48 hours
[6] = HCT-116, HCT116 MTAP KO, 48 hours

| Structure (SMILES) | IC50 (HCT116 WT cells [1]; [5]) | IC50 (HCT116 KO-MTAP cells [2]; [6]) | other results |
| --- | --- | --- | --- |
| Nc1nc2cc(CN3C(=O)c4cnccc4[C@]34CCN(Cc3ccc(F)cc3)C4=O)[nH]c2cc1F (single isomer, unassigned) [Example 22] | 0.51 µM | 0.011 µM | – |
| Nc1nc2cc(CN3C(=O)c4ccncc4[C@]34CCN(Cc3ccc(F)cc3)C4=O)[nH]c2cc1F (single isomer, unassigned) [Example 25] | 0.44 µM | 0.014 µM | – |
| C[C@H]1C[C@@]2(C(=O)N1C)c1ccc(F)cc1C(=O)N2Cc1cc2nc(N)c(F)cc2[nH]1 (single isomer, unassigned) [Example 29] | 0.81 µM | 0.018 µM | – |
| Nc1nc2cc(CN3C(=O)c4cc(F)ccc4[C@]34CCN(Cc3ccc(F)cc3)C4=O)[nH]c2cc1F [Example 1, (S)-2-((5-Amino-6-fluoro-1H-pyrrolo[3,2-b]pyridin-2-yl)methyl)-5-fluoro-1′-(4-fluorobenzyl)spiro[isoindoline-1,3′-pyrrolidine]-2′,3-dione] | – | – | IC50 (HCT116 WT cells [3]): > 30 µM; IC50 (HCT116 KO-MTAP cells [4]): 0.16 µM; pIC50 (HCT116 KO-MTAP cells [4]; HCT-116, column 6, read-out: Cell proliferation IC50 in MTAP KO cells): 6.80; IC50 (HCT116 WT cells [1]; HCT-116, 48 h): 0.29 µM; pIC50 (HCT116 WT cells [1]; HCT-116, read-out: Cell SDMA IC50, HCT116 wild type cells): 6.54; IC50 (HCT116 KO-MTAP cells [2]; HCT-116, 48 h): 0.0053 µM; pIC50 (HCT116 KO-MTAP cells [2]; HCT-116, read-out: Cell SDMA IC50, MTAP knock out HCT116 cells): 8.28 |
| N#Cc1ccc(CN2CC[C@@]3(C2=O)c2ccc(F)cc2C(=O)N3Cc2cc3nc(N)c(F)cc3[nH]2)cc1F [Example 5, (S)-4-((2-((5-Amino-6-fluoro-1H-pyrrolo[3,2-b]pyridin-2-yl)methyl)-5-fluoro-2′,3-dioxospiro[isoindoline-1,3′-pyrrolidin]-1′-yl)methyl)-2-fluorobenzonitrile] | 0.17 µM | 0.0057 µM | – |
| Nc1nc2cc(CN3C(=O)c4cc(F)ccc4[C@]34CCN(Cc3cccc(-n5nccn5)c3)C4=O)[nH]c2cc1F [Example 6, (S)-1′-(3-(2H-1,2,3-Triazol-2-yl)benzyl)-2-((5-amino-6-fluoro-1H-pyrrolo[3,2-b]pyridin-2-yl)methyl)-5-fluorospiro[isoindoline-1,3′-pyrrolidine]-2′,3-dione] | 0.054 µM | 0.0017 µM | – |
| Nc1nc2cc(CN3C(=O)c4cc(F)ccc4[C@]34CCN(Cc3cc(C(F)(F)F)cnn3)C4=O)[nH]c2cc1F [Example 14, (S)-2-((5-Amino-6-fluoro-1H-pyrrolo[3,2-b]pyridin-2-yl)methyl)-5-fluoro-1′-((5-(trifluoromethyl)pyridazin-3-yl)methyl)spiro[isoindoline-1,3′-pyrrolidine]-2′,3-dione] | 0.088 µM | 0.006 µM | – |
| Cn1ncc2cc(CN3CC[C@@]4(C3=O)c3ccc(F)cc3C(=O)N4Cc3cc4nc(N)c(F)cc4[nH]3)ccc21 [Example 15, (S)-2-((5-Amino-6-fluoro-1H-pyrrolo[3,2-b]pyridin-2-yl)methyl)-5-fluoro-1′-((1-methyl-1H-indazol-5-yl)methyl)spiro[isoindoline-1,3′-pyrrolidine]-2′,3-dione] | 0.12 µM | 0.0036 µM | – |
| Nc1nc2cc(CN3C(=O)c4cc(F)ccc4[C@]34CCN(Cc3nc5ccccc5o3)C4=O)[nH]c2cc1F [Example 16, (S)-2-((5-Amino-6-fluoro-1H-pyrrolo[3,2-b]pyridin-2-yl)methyl)-1′-(benzo[d]oxazol-2-ylmethyl)-5-fluorospiro[isoindoline-1,3′-pyrrolidine]-2′,3-dione] | 0.23 µM | 0.0051 µM | – |
| Nc1nc2cc(CN3C(=O)c4c(Cl)cccc4[C@]34CCN(Cc3ccc(F)cc3)C4=O)[nH]c2cc1F [Example 21, (S)-2-((5-Amino-6-fluoro-1H-pyrrolo[3,2-b]pyridin-2-yl)methyl)-4-chloro-1′-(4-fluorobenzyl)spiro[isoindoline-1,3′-pyrrolidine]-2′,3-dione] | 3.2 µM | 0.086 µM | – |
| Cc1cc(F)cc2c1[C@]1(CCN(C)C1=O)N(Cc1cc3nc(N)c(F)cc3[nH]1)C2=O [Example 23, (S)-2-((5-Amino-6-fluoro-1H-pyrrolo[3,2-b]pyridin-2-yl)methyl)-5-fluoro-1′,7-dimethylspiro[isoindoline-1,3′-pyrrolidine]-2′,3-dione] | 12 µM | 0.16 µM | – |
| COc1cc(F)cc2c1[C@]1(CCN(C)C1=O)N(Cc1cc3nc(N)c(F)cc3[nH]1)C2=O [Example 24, (S)-2-((5-Amino-6-fluoro-1H-pyrrolo[3,2-b]pyridin-2-yl)methyl)-5-fluoro-7-methoxy-1′-methylspiro[isoindoline-1,3′-pyrrolidine]-2′,3-dione] | 1.2 µM | 0.032 µM | – |

Now from value to compound, other results behind:

| IC50 (HCT116 WT cells [1]; [5]) | IC50 (HCT116 KO-MTAP cells [2]; [6]) | Structure (SMILES) | other results |
| --- | --- | --- | --- |
| 0.86 µM | 0.032 µM | C[C@@H](N1CC[C@@]2(C1=O)c1ccc(F)cc1C(=O)N2Cc1cc2nc(N)c(F)cc2[nH]1)C1(C)CC1 (relative stereo) [Example 19, (S)-2-((5-Amino-6-fluoro-1H-pyrrolo[3,2-b]pyridin-2-yl)methyl)-5-fluoro-1′-((R*)-1-(1-methylcyclopropyl)ethyl)spiro[isoindoline-1,3′-pyrrolidine]-2′,3-dione] | – |
| 0.19 µM | 0.0094 µM | Cn1cc(C#CCN2CC[C@@]3(C2=O)c2ccc(F)cc2C(=O)N3Cc2cc3nc(N)c(F)cc3[nH]2)cn1 [Example 4, (S)-2-((5-Amino-6-fluoro-1H-pyrrolo[3,2-b]pyridin-2-yl)methyl)-5-fluoro-1′-(3-(1-methyl-1H-pyrazol-4-yl)prop-2-yn-1-yl)spiro[isoindoline-1,3′-pyrrolidine]-2′,3-dione] | – |
| 0.036 µM | 0.0017 µM | Nc1nc2cc(CN3C(=O)c4cc(F)ccc4[C@]34CCN(Cc3cc(F)ccc3F)C4=O)[nH]c2cc1F [Example 7, (S)-2-((5-Amino-6-fluoro-1H-pyrrolo[3,2-b]pyridin-2-yl)methyl)-1′-(2,5-difluorobenzyl)-5-fluorospiro[isoindoline-1,3′-pyrrolidine]-2′,3-dione] | – |
| > 1.5 µM | 0.025 µM | Nc1nc2cc(CN3C(=O)c4cc(F)ccc4[C@]34CCN(CC(F)F)C4=O)[nH]c2cc1F [Example 8, (S)-2-((5-Amino-6-fluoro-1H-pyrrolo[3,2-b]pyridin-2-yl)methyl)-1′-(2,2-difluoroethyl)-5-fluorospiro[isoindoline-1,3′-pyrrolidine]-2′,3-dione] | IC50 (HCT116 WT cells [3]): > 30 µM; IC50 (HCT116 KO-MTAP cells [4]): 1.9 µM |
| 0.53 µM | 0.015 µM | Nc1nc2cc(CN3C(=O)c4cc(F)ccc4[C@]34CCN(CC3(CF)CC3)C4=O)[nH]c2cc1F [Example 9, (S)-2-((5-Amino-6-fluoro-1H-pyrrolo[3,2-b]pyridin-2-yl)methyl)-5-fluoro-1′-((1-(fluoromethyl)cyclopropyl)methyl)spiro[isoindoline-1,3′-pyrrolidine]-2′,3-dione] | – |
| 1.7 µM | 0.023 µM | CN1CC[C@@]2(C1=O)c1ccc(F)cc1C(=O)N2Cc1cc2nc(N)c(F)cc2[nH]1 [Example 10, (S)-2-((5-Amino-6-fluoro-1H-pyrrolo[3,2-b]pyridin-2-yl)methyl)-5-fluoro-1′-methylspiro[isoindoline-1,3′-pyrrolidine]-2′,3-dione] | IC50 (HCT116 WT cells [3]): > 30 µM; IC50 (HCT116 KO-MTAP cells [4]): 1.6 µM |
| 0.81 µM | 0.02 µM | Nc1nc2cc(CN3C(=O)c4cc(F)ccc4[C@]34CCN(CCOC(F)F)C4=O)[nH]c2cc1F [Example 11, (S)-2-((5-Amino-6-fluoro-1H-pyrrolo[3,2-b]pyridin-2-yl)methyl)-1′-(2-(difluoromethoxy)ethyl)-5-fluorospiro[isoindoline-1,3′-pyrrolidine]-2′,3-dione] | – |
| 0.43 µM | 0.0088 µM | Nc1nc2cc(CN3C(=O)c4cc(F)ccc4[C@]34CCN(Cc3ncccc3F)C4=O)[nH]c2cc1F [Example 12, (S)-2-((5-Amino-6-fluoro-1H-pyrrolo[3,2-b]pyridin-2-yl)methyl)-5-fluoro-1′-((3-fluoropyridin-2-yl)methyl)spiro[isoindoline-1,3′-pyrrolidine]-2′,3-dione] | – |
| 0.34 µM | 0.0084 µM | Nc1nc2cc(CN3C(=O)c4cc(F)ccc4[C@]34CCN(Cc3ccno3)C4=O)[nH]c2cc1F [Example 13, (S)-2-((5-Amino-6-fluoro-1H-pyrrolo[3,2-b]pyridin-2-yl)methyl)-5-fluoro-1′-(isoxazol-5-ylmethyl)spiro[isoindoline-1,3′-pyrrolidine]-2′,3-dione] | – |
| 0.42 µM | 0.0068 µM | Nc1nc2cc(CN3C(=O)c4cc(F)ccc4[C@]34CCN(CCOc3ccc(F)cc3)C4=O)[nH]c2cc1F [Example 17, (S)-2-((5-Amino-6-fluoro-1H-pyrrolo[3,2-b]pyridin-2-yl)methyl)-5-fluoro-1′-(2-(4-fluorophenoxy)ethyl)spiro[isoindoline-1,3′-pyrrolidine]-2′,3-dione] | – |
| 0.37 µM | 0.0066 µM | Cc1ncsc1CCN1CC[C@@]2(C1=O)c1ccc(F)cc1C(=O)N2Cc1cc2nc(N)c(F)cc2[nH]1 [Example 18, (S)-2-((5-Amino-6-fluoro-1H-pyrrolo[3,2-b]pyridin-2-yl)methyl)-5-fluoro-1′-(2-(4-methylthiazol-5-yl)ethyl)spiro[isoindoline-1,3′-pyrrolidine]-2′,3-dione] | – |
| 0.16 µM | 0.0029 µM | Nc1nc2cc(CN3C(=O)c4cc(F)ccc4[C@]34CCN(CC#CC3CC3)C4=O)[nH]c2cc1F [Example 20, (S)-2-((5-Amino-6-fluoro-1H-pyrrolo[3,2-b]pyridin-2-yl)methyl)-1′-(3-cyclopropylprop-2-yn-1-yl)-5-fluorospiro[isoindoline-1,3′-pyrrolidine]-2′,3-dione] | – |

From US11939344B2, “Spirocyclic compounds” (ASTRAZENECA AB, priority 2021, dated 2024)
